US20080181848A1 (priority 2004, published 2008)
Counter-ions that a name gives are not always drawn.

Legend:
D2 receptors in striatum = target: T1, D2 receptors in striatum (Rattus norvegicus, UniProt P61169); assay: Binding of intravenously injected radioligand in rat striatum, alone and co-injected with NPA (Examples 2 and 3); type: in vivo, Sprague-Dawley rats
T1 construct: from tissue; host or cells: striatum of Sprague-Dawley rats (in vivo labelling)
Excerpt: In describing and validating the method of the present invention using rats instead of humans, there are certain considerations that should be noted. For example, each rat is not imaged, but is guillotined, and the striatum removed in order to measure the radioactivity in DPM/mg tissue, where DPM represents disintegrations per minute.
Sprague-Dawley rats (275-300 g) were restrained in transparent polystyrene cages. The tail vein was warmed in warm water.

D1 receptor = D1 receptor (Homo sapiens, UniProt P21728); conditions: D1^High state; read-out: dissociation constant for the high-affinity state of the D1 receptor; cited from earlier work
[1] = rat striatum, radioligand co-injected i.v. with NPA 25 μg/kg
[2] = 25 μg/Kg NPA co-injected i.v., rats, n=6

T1 sequence (P61169 whole entry): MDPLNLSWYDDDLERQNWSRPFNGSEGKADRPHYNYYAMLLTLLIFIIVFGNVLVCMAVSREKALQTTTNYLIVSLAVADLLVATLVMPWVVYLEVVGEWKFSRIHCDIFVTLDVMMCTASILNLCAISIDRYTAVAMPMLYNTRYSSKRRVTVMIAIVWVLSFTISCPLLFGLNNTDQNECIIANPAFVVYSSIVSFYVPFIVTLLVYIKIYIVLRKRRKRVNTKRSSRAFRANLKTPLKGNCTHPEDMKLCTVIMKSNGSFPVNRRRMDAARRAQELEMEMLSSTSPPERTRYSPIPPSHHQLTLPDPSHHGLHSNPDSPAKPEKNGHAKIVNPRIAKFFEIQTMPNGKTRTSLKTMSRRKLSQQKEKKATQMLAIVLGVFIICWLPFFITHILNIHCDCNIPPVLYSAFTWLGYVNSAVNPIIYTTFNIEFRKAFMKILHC
Sequence of D1 receptor (P21728 whole entry): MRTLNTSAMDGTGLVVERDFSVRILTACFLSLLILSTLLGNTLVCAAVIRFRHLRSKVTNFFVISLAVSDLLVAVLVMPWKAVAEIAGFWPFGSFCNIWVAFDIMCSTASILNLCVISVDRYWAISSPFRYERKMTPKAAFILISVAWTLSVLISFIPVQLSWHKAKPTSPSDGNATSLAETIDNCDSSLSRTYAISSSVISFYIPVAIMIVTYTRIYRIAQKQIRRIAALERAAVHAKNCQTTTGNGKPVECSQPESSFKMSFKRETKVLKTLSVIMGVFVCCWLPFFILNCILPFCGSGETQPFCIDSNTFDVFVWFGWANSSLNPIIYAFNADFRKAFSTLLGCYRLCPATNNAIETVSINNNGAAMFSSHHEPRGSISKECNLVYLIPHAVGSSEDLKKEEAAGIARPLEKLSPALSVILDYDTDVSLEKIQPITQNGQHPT

With CCN1CCC[C@H]1CNC(=O)c1c(O)c(Cl)cc(Cl)c1OC (racemic) [[^3H]Raclopride] the Control (D2 receptors in striatum; rat striatum, 30 min after i.v. 0.1 nmol radioligand, no NPA) was 2.8 pmol/g, the “Control DPM/mg (total binding in striatum)” value (D2 receptors in striatum; rat striatum, 30 min after i.v. 0.1 nmol radioligand, no NPA, n=6) was 37.9 DPM/mg and the “pmol/g Displaced by NPA” value (D2 receptors in striatum; rat striatum, NPA 25 μg/kg co-injected) was 1.09 pmol/g. For the same compound, the “With NPA” value (D2 receptors in striatum; [1]) was 1.71 pmol/g and the “With NPA DPM/mg” value (D2 receptors in striatum; [1]) was 23.13 DPM/mg.
For CCCN1CCOC2c3cc(O)ccc3CCC21 (single isomer, unassigned; (+)) [(+)PHNO, (+)-4-propyl-9-hydroxy-2,3,4a,5,6,10b-hexahydro-4H-naphth[1,2b][1,4]oxazine HCl], the Kd (D1 receptor) is listed as 80 nM.
With CCCN1CCc2cccc3c2[C@H]1Cc1ccc(O)c(O)c1-3 [NPA, N-propyl-norapomorphine] the “binding of radioactive raclopride, level of the control value” (D2 receptors in striatum; 25 μg/Kg NPA co-injected i.v., rats, mean ±s.e., n=6, P=0.0004 vs (+)PHNO) was 61%±2.9 % of the control value, the “binding of radioactive (+)PHNO, level of the control value” (D2 receptors in striatum; [2]) was 46 % of the control value and the “inhibition of the binding of radioactive raclopride” value (D2 receptors in striatum; [2]) was 39%. The “inhibition of the binding of radioactive (+)PHNO” value (D2 receptors in striatum; 25 μg/Kg NPA co-injected i.v., rats, n=6, representative experiment) was 54% and the “inhibition of the D2^High receptors” value (D2 receptors in striatum; normal rats, NPA 25 μg/kg i.v. co-injected with radioactive (+)PHNO) was 53%.
